In general, kcat refers to the number of substrate molecules converted per active site and unit of time at saturation. For orientation: kcat/KM means the second-order rate constant that governs catalysis at low substrate concentration. In general, Km refers to the substrate concentration at which the rate is half of its maximum. As a reminder, the Vmax is the top rate of the reaction or transport when substrate is in excess.

The values below come from patent publication US20250197842A1, “IMPROVING ENZYMATIC CHANNELING EFFICIENCY VIA MIXED NANOPARTICLE SCAFFOLDS WITHIN SELF-ASSEMBLED NANOPARTICLE ENZYME CLUSTERS” (The Government of the United States of America, as …, priority 2023, published 2025).

The target in data set [1] is T1, E. coli BL21(DE3) lactate dehydrogenase LDH (EC 1.1.1.28), N-terminal (His)6, SEQ ID NO 2, free in solution (Escherichia coli, UniProt P52643).
T1 sequence (P52643 with tags, fused parts or gaps): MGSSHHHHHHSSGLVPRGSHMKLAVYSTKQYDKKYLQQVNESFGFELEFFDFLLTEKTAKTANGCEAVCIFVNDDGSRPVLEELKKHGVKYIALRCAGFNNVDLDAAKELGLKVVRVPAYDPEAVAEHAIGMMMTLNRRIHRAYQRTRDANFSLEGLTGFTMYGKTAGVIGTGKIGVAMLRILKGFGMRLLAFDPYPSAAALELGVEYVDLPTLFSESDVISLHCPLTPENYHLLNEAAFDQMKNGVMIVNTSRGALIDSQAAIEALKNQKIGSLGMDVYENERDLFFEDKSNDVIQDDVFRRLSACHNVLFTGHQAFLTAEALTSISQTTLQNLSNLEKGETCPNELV
In words: Michaelis Menten kinetics of LDH free in solution. The data set is classed as biochemical, E. coli strain BL21(DE3). The note with it: free enzyme (ratio 0), apparent.

The target in data set [2] is T2, E. coli BL21(DE3) lactate dehydrogenase LDH (EC 1.1.1.28), N-terminal (His)6, SEQ ID NO 2, assembled on 525 QDs (Escherichia coli, UniProt P52643).
T2 sequence (P52643 with tags, fused parts or gaps): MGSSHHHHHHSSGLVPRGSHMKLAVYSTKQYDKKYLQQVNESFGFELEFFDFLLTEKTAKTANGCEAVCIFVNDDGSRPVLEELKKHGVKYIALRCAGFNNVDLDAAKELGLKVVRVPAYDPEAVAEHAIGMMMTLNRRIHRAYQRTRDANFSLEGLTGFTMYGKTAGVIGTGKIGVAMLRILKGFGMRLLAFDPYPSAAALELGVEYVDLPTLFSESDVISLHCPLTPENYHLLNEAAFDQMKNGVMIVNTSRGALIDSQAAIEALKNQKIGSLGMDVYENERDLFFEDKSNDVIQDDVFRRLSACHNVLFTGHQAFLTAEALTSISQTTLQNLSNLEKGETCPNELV
Briefly: Michaelis Menten kinetics of LDH assembled on 525 QDs. It counts as biochemical, E. coli strain BL21(DE3). The note with it: apparent. The source says: (§1) The latter are a quasi-two-dimensional QD-like material. As noted above in the Definitions section, NP or nanomaterial is used interchangeable to refer generically to these materials while QDs and NPLs are used to specify a given type. The NP materials were surface functionalized with the zwitterionic dihydrolipoic acid derivative compact ligand 4 (CL4, see U.S. Pat. No. 8,859,284), which replace the hydrophobic ligands utilized during nanomaterial crystal growth for colloidal stability in aqueous buffers. For enzyme attachment or bioconjugation to the NPs, self-assembly was driven by metal affinity coordination of the enzyme's pendant (His)6-motifs to the QD's ZnS shell.

Data set [3] deals with T3, E. coli BL21(DE3) lactate dehydrogenase LDH (EC 1.1.1.28), N-terminal (His)6, SEQ ID NO 2, assembled on 625 QDs (Escherichia coli, UniProt P52643).
T3 sequence (P52643 with tags, fused parts or gaps): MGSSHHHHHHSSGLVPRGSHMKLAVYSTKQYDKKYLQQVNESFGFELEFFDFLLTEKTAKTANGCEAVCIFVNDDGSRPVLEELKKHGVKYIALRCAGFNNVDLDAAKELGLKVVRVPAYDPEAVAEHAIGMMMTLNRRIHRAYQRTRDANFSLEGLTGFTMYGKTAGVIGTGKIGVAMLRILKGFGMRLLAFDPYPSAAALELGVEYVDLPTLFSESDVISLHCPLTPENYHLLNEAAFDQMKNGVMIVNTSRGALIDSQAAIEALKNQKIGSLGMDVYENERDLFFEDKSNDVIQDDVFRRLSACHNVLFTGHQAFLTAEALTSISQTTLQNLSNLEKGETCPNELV
In words: Michaelis Menten kinetics of LDH assembled on 625 QDs. It counts as biochemical, E. coli strain BL21(DE3). The conditions noted are these: apparent.
Text: as §1

The target in data set [4] is T4, E. coli BL21(DE3) lactate dehydrogenase LDH (EC 1.1.1.28), N-terminal (His)6, SEQ ID NO 2, assembled on 641 QDs (Escherichia coli, UniProt P52643).
T4 sequence (P52643 with tags, fused parts or gaps): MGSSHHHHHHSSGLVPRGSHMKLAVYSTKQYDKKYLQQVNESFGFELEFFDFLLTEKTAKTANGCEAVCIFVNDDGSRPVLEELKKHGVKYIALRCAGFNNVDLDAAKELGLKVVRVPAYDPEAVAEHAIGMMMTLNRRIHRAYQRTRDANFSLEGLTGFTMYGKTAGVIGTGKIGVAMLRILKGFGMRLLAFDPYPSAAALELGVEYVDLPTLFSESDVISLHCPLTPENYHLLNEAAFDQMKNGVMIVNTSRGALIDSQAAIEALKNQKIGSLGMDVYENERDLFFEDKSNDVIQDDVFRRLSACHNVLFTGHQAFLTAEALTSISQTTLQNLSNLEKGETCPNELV
In words: Michaelis Menten kinetics of LDH assembled on 641 QDs. The data set is classed as biochemical, E. coli strain BL21(DE3). The conditions noted are these: apparent.
Text: as §1

In data set [5] the target is T5, E. coli BL21(DE3) lactate dehydrogenase LDH (EC 1.1.1.28), N-terminal (His)6, SEQ ID NO 2, assembled on NPLs (Escherichia coli, UniProt P52643).
T5 sequence (P52643 with tags, fused parts or gaps): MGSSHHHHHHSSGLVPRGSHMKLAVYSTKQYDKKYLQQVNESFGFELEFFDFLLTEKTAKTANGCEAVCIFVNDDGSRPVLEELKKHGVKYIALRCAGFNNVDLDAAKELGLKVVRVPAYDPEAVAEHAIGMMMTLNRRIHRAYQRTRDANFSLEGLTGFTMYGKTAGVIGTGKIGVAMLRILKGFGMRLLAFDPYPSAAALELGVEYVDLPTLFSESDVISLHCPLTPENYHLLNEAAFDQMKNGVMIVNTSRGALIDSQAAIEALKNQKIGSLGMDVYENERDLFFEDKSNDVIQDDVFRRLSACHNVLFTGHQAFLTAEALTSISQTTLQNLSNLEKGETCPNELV
Briefly: Michaelis Menten kinetics of LDH assembled on NPLs. It counts as biochemical, E. coli strain BL21(DE3). The conditions noted are these: ratio 1 LDH per NPL, apparent.
Text: as §1

The target of data set [6] is T6, E. coli BL21(DE3) lactate dehydrogenase LDH (EC 1.1.1.28), N-terminal (His)6, SEQ ID NO 2, on mixed 525 QD/NPL (Escherichia coli, UniProt P52643).
T6 sequence (P52643 with tags, fused parts or gaps): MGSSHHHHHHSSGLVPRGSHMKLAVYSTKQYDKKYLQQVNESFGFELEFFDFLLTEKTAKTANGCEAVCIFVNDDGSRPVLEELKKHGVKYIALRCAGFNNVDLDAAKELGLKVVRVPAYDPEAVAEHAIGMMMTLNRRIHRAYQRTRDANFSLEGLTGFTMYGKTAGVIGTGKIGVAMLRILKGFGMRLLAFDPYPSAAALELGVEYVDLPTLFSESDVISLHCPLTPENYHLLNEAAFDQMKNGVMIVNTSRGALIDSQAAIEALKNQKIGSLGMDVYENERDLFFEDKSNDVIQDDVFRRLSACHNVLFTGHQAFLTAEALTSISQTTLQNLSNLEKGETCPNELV
It counts as biochemical, E. coli strain BL21(DE3). The note with it: 0.75 nM 525 QD/0.5 nM NPL, ratio 2 per NP, apparent.
Text: as §1

The target in data set [7] is E. coli BL21(DE3) pyruvate kinase PykA (EC 2.7.1.40), N-terminal (His)6, SEQ ID NO 1, free in solution (Escherichia coli, UniProt P21599). The conditions noted are these: free enzyme (ratio 0), apparent.
Chain of E. coli BL21(DE3) pyruvate kinase PykA (EC 2.7.1.40), N-terminal (His)6, SEQ ID NO 1, free in solution (P21599 whole entry, added parts left off): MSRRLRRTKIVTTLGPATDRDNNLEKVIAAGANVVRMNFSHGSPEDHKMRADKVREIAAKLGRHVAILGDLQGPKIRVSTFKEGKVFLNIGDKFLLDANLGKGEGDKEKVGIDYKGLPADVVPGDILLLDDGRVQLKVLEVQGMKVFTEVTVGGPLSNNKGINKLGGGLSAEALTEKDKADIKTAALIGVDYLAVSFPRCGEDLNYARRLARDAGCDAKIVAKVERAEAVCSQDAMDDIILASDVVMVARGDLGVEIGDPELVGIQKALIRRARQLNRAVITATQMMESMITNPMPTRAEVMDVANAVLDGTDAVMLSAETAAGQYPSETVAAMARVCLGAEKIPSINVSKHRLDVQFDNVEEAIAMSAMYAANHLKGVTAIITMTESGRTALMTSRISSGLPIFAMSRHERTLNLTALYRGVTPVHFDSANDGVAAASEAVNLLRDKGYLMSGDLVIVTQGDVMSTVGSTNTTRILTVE
Data set [8] addresses E. coli BL21(DE3) pyruvate kinase PykA (EC 2.7.1.40), N-terminal (His)6, SEQ ID NO 1, on mixed 525 QD/NPL (Escherichia coli, UniProt P21599). The conditions noted are these: ratio 2 enzyme per NP.
Substrate in data set [9]: CC(=O)C(=O)O
Briefly: Michaelis Menten kinetics of LDH free in solution. It counts as biochemical, E. coli strain BL21(DE3). The conditions noted are these: other: free enzyme (ratio 0), apparent, pH 8.0.

Chain of E. coli BL21(DE3) pyruvate kinase PykA (EC 2.7.1.40), N-terminal (His)6, SEQ ID NO 1, on mixed 525 QD/NPL (P21599 whole entry, added parts left off): as above

As to `CC(=O)C(=O)O` [pyruvic acid], the catalytic constant (kcat) in data set [1] worked out at 13.3 s⁻¹; in data set [2] (ratio 1 LDH per QD), 15.9 ± 0.4 s⁻¹; in data set [2] (ratio 4 LDH per QD), 15.5 ± 0.1 s⁻¹; in data set [3] (ratio 4 LDH per QD), 19.5 ± 0.1 s⁻¹; in data set [3] (ratio 8 LDH per QD) it was 20.7 ± 0.1 s⁻¹; in data set [4] (ratio 1 LDH per QD), 3.32 ± 0.1 s⁻¹. In addition, the turnover number (kcat) in data set [4] (ratio 4 LDH per QD) was determined as 1.45 ± 0.1 s⁻¹; in data set [4] (ratio 8 LDH per QD) it was 1.04 ± 0.1 s⁻¹; in data set [5], 32.3 s⁻¹. Further, the kcat/KM in [1] was found to be 0.015 ± 0.007 M⁻¹ s⁻¹; in [2] (ratio 1 LDH per QD) it was 0.015 ± 0.0005 M⁻¹ s⁻¹; in data set [2] (ratio 2 LDH per QD), 0.02 ± 0.007 M⁻¹ s⁻¹; in [2] (ratio 4 LDH per QD), 0.014 ± 0.004 M⁻¹ s⁻¹; in [2] (ratio 8 LDH per QD), 0.015 ± 0.003 M⁻¹ s⁻¹; in data set [3] (ratio 1 LDH per QD), 0.021 ± 0.005 M⁻¹ s⁻¹. Further, the kcat/KM was found to be 0.023 ± 0.004 M⁻¹ s⁻¹ in [3] (ratio 2 LDH per QD); 0.018 ± 0.005 M⁻¹ s⁻¹ in data set [3] (ratio 4 LDH per QD); 0.017 ± 0.005 M⁻¹ s⁻¹ in [3] (ratio 8 LDH per QD); 0.006 ± 0.002 M⁻¹ s⁻¹ in data set [4] (ratio 1 LDH per QD); 0.0038 ± 0.0007 M⁻¹ s⁻¹ in data set [4] (ratio 2 LDH per QD); 0.0021 ± 0.001 M⁻¹ s⁻¹ in data set [4] (ratio 4 LDH per QD). Moreover, the catalytic efficiency (kcat/KM) in [4] (ratio 8 LDH per QD) is 0.0013 ± 0.0003 M⁻¹ s⁻¹; in data set [6], 0.019 ± 0.002 M⁻¹ s⁻¹. For the same molecule, the VMax in [2] (ratio 1 LDH per QD) is 40.0 ± 6 nM/s; in data set [2] (ratio 2 LDH per QD), 45.0 ± 1 nM/s; in data set [2] (ratio 4 LDH per QD) it was 40.0 ± 1 nM/s; in data set [2] (ratio 8 LDH per QD) it was 57.0 ± 1 nM/s; in data set [3] (ratio 1 LDH per QD), 69.0 ± 1 nM/s; in [3] (ratio 2 LDH per QD), 58.0 ± 3 nM/s. The VMax was determined as 49.0 ± 1 nM/s in data set [3] (ratio 4 LDH per QD); 52.0 ± 1 nM/s in data set [3] (ratio 8 LDH per QD); 8.3 ± 0.1 nM/s in [4] (ratio 1 LDH per QD); 7.7 ± 0.3 nM/s in [4] (ratio 2 LDH per QD); 3.6 ± 0.5 nM/s in [4] (ratio 4 LDH per QD); 2.6 ± 0.3 nM/s in data set [4] (ratio 8 LDH per QD). The VMax in data set [6] is 53.0 ± 1 nM/s.

Turning to `C=C(OP(=O)(O)O)C(=O)O` [PEP, phosphoenolpyruvic acid], the catalytic constant (kcat) in data set [7] was found to be 25 s⁻¹; in [8], 13.3 s⁻¹.

B1: E. coli BL21(DE3) lactate dehydrogenase LDH (EC 1.1.1.28), N-terminal (His)6, SEQ ID NO 2, free in solution (Escherichia coli K-12) (protein)
chain: MGSSHHHHHHSSGLVPRGSHMKLAVYSTKQYDKKYLQQVNESFGFELEFFDFLLTEKTAKTANGCEAVCIFVNDDGSRPVLEELKKHGVKYIALRCAGFNNVDLDAAKELGLKVVRVPAYDPEAVAEHAIGMMMTLNRRIHRAYQRTRDANFSLEGLTGFTMYGKTAGVIGTGKIGVAMLRILKGFGMRLLAFDPYPSAAALELGVEYVDLPTLFSESDVISLHCPLTPENYHLLNEAAFDQMKNGVMIVNTSRGALIDSQAAIEALKNQKIGSLGMDVYENERDLFFEDKSNDVIQDDVFRRLSACHNVLFTGHQAFLTAEALTSISQTTLQNLSNLEKGETCPNELV
Take B1: in data set [9], the Michaelis-Menten constant (Km) worked out at 900 ± 400 µM and the Vmax is 1.98 µM/min.
